# Columns and labels:
# [1] = target: T1, PRMT5/MEP50 (Homo sapiens, UniProt O14744); assay: PRMT5 Biochemical Assay (PRMT5/MEP50 enzyme assay on peptide substrate, 3H-SAM Flashplate); conditions: Table D-2; read-out: Biochemical IC50
# T1 construct: Expressed full-length human Flag-PRMT5/6His-MeP50 protein complex was purified; made in house; host or cells: Spodoptera frugiperda (SF9) insect cells, baculovirus (pDEST8)
# [2] = tested on: Z-138 cells; assay: Z-138 Proliferation Assay (Cell Titer Glo, 5 days); format: cell-based; conditions: Homo sapiens, Table D-2
# Excerpt: Z-138 Proliferation Assay
# Z-138 suspension cells were purchased from ATCC (American Type Culture Collection, Manassas, Va.). RPMI/Glutamax medium, penicillin-streptomycin, heat inactivated fetal bovine serum were purchased from Life Technologies, Grand Island, N.Y., USA. V-bottom polypropylene 384-well plates were purchased from Greiner Bio-One, Monroe, N.C., USA. Cell culture 384-well white opaque plates were purchased from Perkin Elmer, Waltham, Mass., USA. Cell-Titer Gb® was purchased from Promega Corporation, Madison, Wis., USA. SpectraMax M5 plate reader was purchased from Molecular Devices LLC, Sunnyvale, Calif., USA.
# Z-138 suspension cells were maintained in growth medium (RPMI 1640 supplemented with 10% v/v heat inactivated fetal bovine serum and cultured at 37° C. under 5% CO2. Under assay conditions, cells were incubated in assay medium (RPMI 1640 supplemented with 10% v/v heat inactivated fetal bovine serum and 100 units/mL penicillin-streptomycin) at 37° C. under 5% CO2.
# For the assessment of the effect of compounds on the proliferation of the Z-138 cell line, exponentially growing cells were plated in 384-well white opaque plates at a density of 10,000 cells/ml in a final volume of 50 μl of assay medium. A compound source plate was prepared by performing triplicate nine-point 3-fold serial dilutions in DMSO, beginning at 10 mM (final top concentration of compound in the assay was 20 μM and the DMSO was 0.2%). A 100 nL aliquot from the compound stock plate was added to its respective well in the cell plate. […] After addition of compounds, assay plates were incubated for 5 days at 37° C., 5% CO2, relative humidity >90%.
# Cell viability was measured by quantitation of ATP present in the cell cultures, adding 35 μl of Cell Titer Glo® reagent to the cell plates. Luminescence was read in the SpectraMax M5 microplate reader. The concentration of compound inhibiting cell viability by 50% was determined using a 4-parametric fit of the normalized dose response curves.
# T1 sequence (O14744 with tags, fused parts or gaps): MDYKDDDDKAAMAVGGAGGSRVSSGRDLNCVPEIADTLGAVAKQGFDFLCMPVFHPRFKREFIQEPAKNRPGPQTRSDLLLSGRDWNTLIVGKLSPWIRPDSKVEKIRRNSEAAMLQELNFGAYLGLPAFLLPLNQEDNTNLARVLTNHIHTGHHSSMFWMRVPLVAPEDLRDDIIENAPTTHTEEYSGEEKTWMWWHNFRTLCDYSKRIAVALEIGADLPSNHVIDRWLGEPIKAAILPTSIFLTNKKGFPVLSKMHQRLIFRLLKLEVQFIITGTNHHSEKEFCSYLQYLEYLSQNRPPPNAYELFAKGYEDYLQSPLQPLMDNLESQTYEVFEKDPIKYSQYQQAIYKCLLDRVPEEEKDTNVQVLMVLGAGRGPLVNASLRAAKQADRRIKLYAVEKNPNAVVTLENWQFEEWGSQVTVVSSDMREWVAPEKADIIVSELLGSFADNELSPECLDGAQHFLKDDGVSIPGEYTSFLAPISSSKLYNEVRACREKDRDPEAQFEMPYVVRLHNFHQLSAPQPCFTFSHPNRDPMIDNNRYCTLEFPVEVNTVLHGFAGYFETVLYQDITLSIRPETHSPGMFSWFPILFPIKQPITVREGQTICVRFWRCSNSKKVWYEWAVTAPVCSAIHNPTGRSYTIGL
# T1 sequence (Q9BQA1 with tags, fused parts or gaps partner limits assumed): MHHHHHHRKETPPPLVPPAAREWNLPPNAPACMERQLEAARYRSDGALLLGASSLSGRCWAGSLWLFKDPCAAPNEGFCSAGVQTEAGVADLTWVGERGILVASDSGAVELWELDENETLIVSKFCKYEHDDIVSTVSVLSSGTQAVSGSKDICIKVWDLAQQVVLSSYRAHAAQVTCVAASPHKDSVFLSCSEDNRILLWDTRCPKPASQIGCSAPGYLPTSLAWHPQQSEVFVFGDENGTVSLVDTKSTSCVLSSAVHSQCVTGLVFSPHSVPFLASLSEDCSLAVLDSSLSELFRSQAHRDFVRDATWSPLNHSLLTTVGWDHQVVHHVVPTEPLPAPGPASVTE
SMILES,IC50 [1] [µM],EC50 [2] [µM]
CN1CCCCC1COCC(O)CN1CCc2ccccc2C1 (stereo not shown) [Compound D289],> 40,> 40
CC(C)(C)OC(=O)N1CC(OCC(O)CN2CCc3ccccc3C2)C1 (stereo not shown) [Compound D290],1 to 10,> 40
CC(C)(C)OC(=O)N1CCCC(OCC(O)CN2CCc3ccccc3C2)C1 (stereo not shown) [Compound D291],1 to 10,> 40
CC(C)(C)OC(=O)N1CCC(OCC(O)CN2CCc3ccccc3C2)CC1 (stereo not shown) [Compound D292],1 to 10,> 40
CN1CCC(OCC(O)CN2CCc3ccccc3C2)CC1 (stereo not shown) [Compound D293],> 40,> 40
OC(COCC1CCCCC1)CN1CCc2ccccc2C1 (stereo not shown) [Compound D294],1 to 10,> 40
CCn1ccnc1COCC(O)CN1CCc2ccccc2C1 (stereo not shown) [Compound D295],> 40,> 40
OC(COC1CCCNC1)CN1CCc2ccccc2C1 (stereo not shown) [Compound D297],> 40,> 40
OC(COC1CCNCC1)CN1CCc2ccccc2C1 (stereo not shown) [Compound D298],> 40,> 40
CC(OCC(O)CN1CCc2ccccc2C1)c1cccnc1 (stereo not shown) [Compound D299],10 to 40,> 40
OC(COCC1COc2ccccc2O1)CN1CCc2ccccc2C1 (stereo not shown) [Compound D300],0.101 to 1,> 40
OC(COC1Cc2ccccc2C1)CN1CCc2ccccc2C1 (stereo not shown) [Compound D301],1 to 10,> 40
OC(COCC1CC1)CN1CCc2ccccc2C1 (stereo not shown) [Compound D303],1 to 10,> 40
OC(COCC1CCCCO1)CN1CCc2ccccc2C1 (stereo not shown) [Compound D304],> 40,> 40
OC(COCC1CCCO1)CN1CCc2ccccc2C1 (stereo not shown) [Compound D305],10 to 40,> 40
OC(COC1CCNC1)CN1CCc2ccccc2C1 (stereo not shown) [Compound D306],> 40,> 40
CN1CCC(OCC(O)CN2CCc3ccccc3C2)C1 (stereo not shown) [Compound D307],> 40,> 40
OC(COCc1ccccc1)CN1CCc2ccccc2C1 (stereo not shown) [Compound D308],10 to 40,> 40
OC(COC1CCCCCC1)CN1CCc2ccccc2C1 (stereo not shown) [Compound D309],1 to 10,> 40
OC(COC1CCOCC1)CN1CCc2ccccc2C1 (stereo not shown) [Compound D310],10 to 40,> 40

# — patent publication US20150344457A1, “METHODS OF INHIBITING PRMT5” (EPIZYME, INC., priority 2012, published 2015)
